Laboratory results from ChEMBL document CHEMBL1157550, “Incorporation of fluorinated phenylalanine generates highly specific inhibitor of proteasome's chymotrypsin-like sites” (J Med Chem, 2010).

Tests used:
[1] = target: Proteasome subunit beta type-5 (Homo sapiens) (UniProt P28074); assay: Inhibition of 26S proteasome beta 5 in human HEK293 cell lysate assessed as residual activity at 0.11 uM after 1 hr
[2] = target: T1, Proteasome component C5 (Homo sapiens) (UniProt P20618); assay: Inhibition of 26S proteasome beta 1 in human HEK293 cell lysate assessed as residual activity at 0.11 uM after 1 hr; format: cell-free
T1 sequence (whole entry): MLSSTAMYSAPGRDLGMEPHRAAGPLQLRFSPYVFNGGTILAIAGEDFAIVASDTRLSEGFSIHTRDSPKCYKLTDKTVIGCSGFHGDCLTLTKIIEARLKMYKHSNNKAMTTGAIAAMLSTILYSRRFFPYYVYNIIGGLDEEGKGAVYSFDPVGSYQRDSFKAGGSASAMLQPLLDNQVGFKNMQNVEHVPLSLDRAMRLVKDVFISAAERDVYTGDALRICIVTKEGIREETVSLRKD

[3] = target: Proteasome subunit beta type-5 (Homo sapiens) (UniProt P28074); assay: Inhibition of 26S proteasome beta 5 in human HEK293 cell lysate assessed as residual activity at […] after 1 hr
[4] = target: Proteasome subunit beta type-5 (Homo sapiens) (UniProt P28074); assay: Inhibition of 26S proteasome beta 5 in human HEK293 cell lysate assessed as residual activity at 0.03 uM after 1 hr
[5] = target: T1, Proteasome component C5 (Homo sapiens); assay: Inhibition of 26S proteasome beta 1 in human HEK293 cell lysate assessed as residual activity at 3 uM after 1 hr; format: cell-free
[6] = target: Proteasome Macropain subunit (Homo sapiens) (UniProt P49721); assay: Inhibition of 26S proteasome beta 2 in human HEK293 cell lysate assessed as residual activity at 0.11 uM after 1 hr; format: cell-free
[7] = target: Proteasome Macropain subunit (Homo sapiens) (UniProt P49721); assay: Inhibition of 26S proteasome beta 2 in human HEK293 cell lysate assessed as residual activity at 1 uM after 1 hr; format: cell-free
[8] = target: T1, Proteasome component C5 (Homo sapiens); assay: Inhibition of 26S proteasome beta 1 in human HEK293 cell lysate assessed as residual activity at […] after 1 hr; format: cell-free
[9] = target: T1, Proteasome component C5 (Homo sapiens); assay: Inhibition of 26S proteasome beta 1 in human HEK293 cell lysate assessed as residual activity at 0.03 uM after 1 hr; format: cell-free
[10] = target: Proteasome Macropain subunit (Homo sapiens) (UniProt P49721); assay: Inhibition of 26S proteasome beta 2 in human HEK293 cell lysate assessed as residual activity at 9 uM after 1 hr; format: cell-free
[11] = target: Proteasome Macropain subunit (Homo sapiens) (UniProt P49721); assay: Inhibition of 26S proteasome beta 2 in human HEK293 cell lysate assessed as residual activity at 0.03 uM after 1 hr; format: cell-free
[12] = target: Proteasome subunit beta type-5 (Homo sapiens) (UniProt P28074); assay: Inhibition of 26S proteasome beta 5 in human HEK293 cell lysate assessed as residual activity at 1 uM after 1 hr
[13] = target: Proteasome Macropain subunit (Homo sapiens) (UniProt P49721); assay: Inhibition of 26S proteasome beta 2 in human HEK293 cell lysate assessed as residual activity at […] after 1 hr; format: cell-free
[14] = target: Proteasome Macropain subunit (Homo sapiens) (UniProt P49721); assay: Inhibition of 26S proteasome beta 2 in human HEK293 cell lysate assessed as residual activity at 3 uM after 1 hr; format: cell-free
[15] = target: T1, Proteasome component C5 (Homo sapiens); assay: Inhibition of 26S proteasome beta 1 in human HEK293 cell lysate assessed as residual activity at 9 uM after 1 hr; format: cell-free
[16] = target: Proteasome subunit beta type-5 (Homo sapiens) (UniProt P28074); assay: Inhibition of 26S proteasome beta 5 in human HEK293 cell lysate assessed as residual activity at 3 uM after 1 hr
[17] = target: T1, Proteasome component C5 (Homo sapiens); assay: Inhibition of 26S proteasome beta 1 in human HEK293 cell lysate assessed as residual activity at 1 uM after 1 hr; format: cell-free
[18] = target: Proteasome subunit beta type-5 (Homo sapiens) (UniProt P28074); assay: Inhibition of 26S proteasome beta 5 in human HEK293 cell lysate assessed as residual activity at 9 uM after 1 hr

Sequence of Proteasome Macropain subunit (Homo sapiens) (P49721 whole entry): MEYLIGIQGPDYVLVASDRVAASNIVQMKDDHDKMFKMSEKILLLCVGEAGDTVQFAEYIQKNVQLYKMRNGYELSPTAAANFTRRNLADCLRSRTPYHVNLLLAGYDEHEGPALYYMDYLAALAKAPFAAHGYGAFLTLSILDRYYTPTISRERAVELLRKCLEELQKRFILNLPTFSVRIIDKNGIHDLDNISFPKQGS
Sequence of Proteasome subunit beta type-5 (Homo sapiens) (P28074 whole entry, looked up): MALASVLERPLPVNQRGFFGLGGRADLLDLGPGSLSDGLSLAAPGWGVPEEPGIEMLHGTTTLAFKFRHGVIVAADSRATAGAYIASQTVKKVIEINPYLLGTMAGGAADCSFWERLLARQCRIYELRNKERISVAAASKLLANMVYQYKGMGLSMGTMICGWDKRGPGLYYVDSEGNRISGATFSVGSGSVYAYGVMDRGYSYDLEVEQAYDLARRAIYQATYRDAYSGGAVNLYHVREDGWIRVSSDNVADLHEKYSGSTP

CC1=CC(C)=[N+]2C1=C(CCCCc1cn([C@@H](Cc3ccccc3)C(=O)N[C@@H](Cc3ccccc3)C(=O)N[C@@H](Cc3c(F)c(F)c(F)c(F)c3F)C(=O)N[C@@H](CC(C)C)C(=O)[C@@]3(C)CO3)nn1)c1c(C)cc(C)n1[B-]2(F)F
Activity [1]: 76.5% | Activity [2]: 111% | Activity [3]: 45.8% | Activity [4]: 89.7% | Activity [5]: 120% | Activity [6]: 134% | Activity [7]: 124% | Activity [8]: 98.4% | Activity [9]: 101% | Activity [10]: 102% | Activity [11]: 117% | Activity [12]: 25.3% | Activity [13]: 106% | Activity [14]: 141% | Activity [15]: 100% | Activity [16]: 18% | Activity [17]: 107% | Activity [18]: 8.3%
